These results are taken from patent publication US10611740B2, “Aryl dihydro-2H-benzo[b][1,4]oxazine sulfonamide and related compounds for use as agonists of RORγ and the treatment of disease” (Lycera Corporation, priority 2015, dated 2020).

The term EC50 denotes the concentration that produces a half-maximal response.

The target in experiment [1] is T1, RORγ-LBD (Homo sapiens, UniProt P51449).
T1 construct: made in house; host or cells: SF9 cells (baculovirus)
T1 sequence (P51449 269-508 limits assumed): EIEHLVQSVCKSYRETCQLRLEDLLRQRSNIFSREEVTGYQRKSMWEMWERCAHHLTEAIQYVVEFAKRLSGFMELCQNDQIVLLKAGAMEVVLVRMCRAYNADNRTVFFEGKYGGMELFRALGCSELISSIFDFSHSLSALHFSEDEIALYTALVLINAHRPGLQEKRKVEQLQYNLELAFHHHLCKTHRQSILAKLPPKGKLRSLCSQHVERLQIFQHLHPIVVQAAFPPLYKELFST
The experiment can be described thus: RORγ-Ligand Binding Domain (LBD) TR-FRET Assay.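 As to TR-FRET Assay Max Response: 665/615 nm ratio relative to signal without ursolic acid or compound set at 100.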 Type of experiment: biochemical. Put shortly:
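SF9 lysate containing His-RORγ-LBD, ~3 nM final; coactivator peptide biotin-SRC1 LXXLL, 200 nM final; ursolic acid 2 μM final; DMSO 1% final; Tris pH 7.0 buffer with KCl, EDTA, DTT, BSA. TR-FRET format.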
(Time-resolved FRET reads energy transfer from a long-lived donor to a nearby acceptor.)

The target of experiment [2] is T2, Gal4-RORγ-LBD (Homo sapiens, UniProt P51449).
T2 construct: expressed in transfected cells; host or cells: HEK-293 cells (pcDNA3.1neo plasmid)
T2 sequence (P51449 269-508 limits assumed): T1 sequence (P51449 269-508 limits assumed)
Description: Gal4-RORγ Luciferase Reporter Assay in HEK-293T Cells. The conditions noted are these: HEK-293 cells. Type of experiment: cell-based. Put shortly: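 In transfected HEK-293 cells (Gal4-RORγ-LBD, Gal4-luciferase), test agents with 2 μM ursolic acid were incubated overnight at 37 °C before luminescent detection. Values are relative to the ursolic-acid-free, compound-free signal (100).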
For orientation: A reporter such as luciferase makes a cellular process visible.

Setting [3] is: luciferase reporter, with 2 μM ursolic acid.

A value given as a limit tells only on which side of the number the result lay.

Take `CC(C)c1cccc(S(=O)(=O)N2C[C@H](CCNC(=O)C(C)(C)O)Oc3ccc(-c4cccc(N(C)C)n4)cc32)c1` [Compound 30G, (S)-N-(2-(6-(6-(dimethylamino)-pyridin-2-yl)-4-((3-isopropyl-phenyl)sulfonyl)-3.,4-dihydro-2H-benzo[b][1,4]oxazin-2-yl)ethyl)-2-hydroxy-2-methylpropanamide]: in experiment [1], the EC50 was less than 0.5 µM and the “TR-FRET Assay Max Response” value is “**** (The symbol “****” indicates a value greater than 200)”. Also, in experiment [2] (setting [3]), the EC50 was less than 0.5 µM and the “Gal4-RORγ Assay Max Response” value is recorded as “* (The symbol “*” indicates a value in the range of 25 to 90)”.
On to `O=c1[nH]nc(CC[C@H]2CN(S(=O)(=O)c3cccc(C(F)(F)F)c3)c3cc(-c4cc(F)cc(F)c4Cl)ccc3O2)o1` [Compound 28I, (S)-5-(2-(6-(2-chloro-3,5-difluorophenyl)-4-((3-(trifluoromethyl)phenyl)sulfonyl)-3,4-dihydro-2H-benzo[b][1,4]oxazin-2-yl)ethyl)-1,3,4-oxadiazol-2(3H)-one], for which, in experiment [1], the EC50 was less than 0.5 µM and the “TR-FRET Assay Max Response” value is on record as “**** (The symbol “****” indicates a value greater than 200)”. In experiment [2] (setting [3]), the EC50 was less than 0.5 µM and the “Gal4-RORγ Assay Max Response” value was “** (The symbol “**” indicates a value in the range of greater than 90 to 150)”.
For `CCc1ccccc1-c1ccc2c(c1)N(S(=O)(=O)c1cccc(C(F)(F)F)c1)C[C@H](CCC(=O)O)O2` [Compound 2BD, (S)-3-(6-(2-ethylphenyl)-4-((3-(trifluoromethyl)phenyl)sulfonyl)-3,4-dihydro-2H-benzo[b][1,4]oxazin-2-yl)propanoic acid], in experiment [1], the EC50 is less than 0.5 µM and the “TR-FRET Assay Max Response” value is “**** (The symbol “****” indicates a value greater than 200)”. Besides, in experiment [2] (setting [3]), the EC50 is less than 0.5 µM and the “Gal4-RORγ Assay Max Response” value was “** (The symbol “**” indicates a value in the range of greater than 90 to 150)”.
Take `CC(C)(F)C(=O)NC[C@H]1CN(S(=O)(=O)c2cccc(C(F)(F)F)c2)c2cc(-c3cccc(F)c3Cl)ccc2O1` [Compound 30BZ, (S)-N-((6-(2-chloro-3-fluoro-phenyl)-4-((3-(trifluoromethyl)-phenyl)sulfonyl)-3,4-dihydro-2H-benzo[b][1,4]oxazin-2-yl)methyl)-2-fluoro-2-methylpropanamide]: in experiment [1], the EC50 was less than 0.5 µM and the “TR-FRET Assay Max Response” value is recorded as “**** (The symbol “****” indicates a value greater than 200)”. In experiment [2] (2 μM ursolic acid), the EC50 was less than 0.5 µM and the “Gal4-RORγ Assay Max Response” value was “* (The symbol “*” indicates a value in the range of 25 to 90)”.
As to `O=C(O)C1(C[C@H]2CN(S(=O)(=O)c3cccc(C(F)(F)F)c3)c3cc(-c4cc(F)cc(F)c4Cl)ccc3O2)COC1` [Compound 51B, (S)-3-((6-(2-chloro-3,5-difluoro-phenyl)-4-((3-(trifluoromethyl)-phenyl)sulfonyl)-3,4-dihydro-2H-benzo[b][1,4]oxazin-2-yl)methyl)oxetane-3-carboxylic acid], in experiment [1], the EC50 was less than 0.5 µM and the “TR-FRET Assay Max Response” value is “*** (The symbol “***” indicates a value in the range of greater than 150 to 200)”. Besides, in experiment [2] (2 μM ursolic acid), the EC50 is less than 0.5 µM and the “Gal4-RORγ Assay Max Response” value was “** (The symbol “**” indicates a value in the range of greater than 90 to 150)”.
As for `Cn1nccc1-c1ccc2c(c1)N(S(=O)(=O)c1cccc(C(F)(F)F)c1)C[C@H](CCC(=O)O)O2` [Compound 2AR, (S)-3-(6-(1-methyl-1H-pyrazol-5-yl)-4-((3-(trifluoromethyl)-phenyl)sulfonyl)-3,4-dihydro-2H-benzo[b][1,4]oxazin-2-yl)propanoic acid], the EC50 in experiment [1] is 0.5 to 5 µM; in experiment [2] (setting [3]), greater than 10 µM. Further, the “TR-FRET Assay Max Response” value in experiment [1] is given as “* (The symbol “*” indicates a value in the range of 25 to 90)”.
With `O=C(O)CCC[C@H]1CN(S(=O)(=O)c2cccc(C(F)(F)F)c2)c2cc(-c3cccc(C(F)(F)F)n3)ccc2O1` [Compound 21C, (S)-4-(4-((3-(trifluoromethyl)-phenyl)sulfonyl)-6-(6-(trifluoromethyl)pyridin-2-yl)-3,4-dihydro-2H-benzo[b][1,4]oxazin-2-yl)butanoic acid], in experiment [1], the EC50 is less than 0.5 µM and the “TR-FRET Assay Max Response” value is reported as “**** (The symbol “****” indicates a value greater than 200)”. In experiment [2] (setting [3]), the EC50 was less than 0.5 µM and the “Gal4-RORγ Assay Max Response” value was “*** (The symbol “***” indicates a value in the range of greater than 150 to 200)”.
For the molecule `O=C(CC[C@H]1CN(S(=O)(=O)c2cccc(C(F)(F)F)c2)c2cc(-c3cccc(Cl)c3)ccc2O1)N1CCOCC1` [Compound 23B, (S)-3-(6-(3-chlorophenyl)-4-((3-(trifluoromethyl)phenyl)sulfonyl)-3,4-dihydro-2H-benzo[b][1,4]-oxazin-2-yl)-1-morpholino-propan-1-one], in experiment [1], the EC50 is less than 0.5 µM and the “TR-FRET Assay Max Response” value is listed as “**** (The symbol “****” indicates a value greater than 200)”. In experiment [2] (setting [3]), the EC50 is less than 0.5 µM and the “Gal4-RORγ Assay Max Response” value is “** (The symbol “**” indicates a value in the range of greater than 90 to 150)”.
Consider `O=C(O)CCNC(=O)CC[C@H]1CN(S(=O)(=O)c2cccc(C(F)(F)F)c2)c2cc(-c3cccc(Cl)c3)ccc2O1` [Compound 23D, (S)-3-(3-(6-(3-chlorophenyl)-4-((3-(trifluoromethyl)phenyl)-sulfonyl)-3,4-dihydro-2H-benzo[b][1,4]oxazin-2-yl)propanamido)propanoic acid], for which, in experiment [1], the EC50 was less than 0.5 µM and the “TR-FRET Assay Max Response” value is given as “*** (The symbol “***” indicates a value in the range of greater than 150 to 200)”. Further, in experiment [2] (setting [3]), the EC50 is less than 0.5 µM and the “Gal4-RORγ Assay Max Response” value was “** (The symbol “**” indicates a value in the range of greater than 90 to 150)”.
On to `CC(C)(O)C(=O)NCC[C@H]1CN(S(=O)(=O)c2cccc(C(F)(F)F)c2)c2cc(-c3cccc(C(F)(F)F)n3)ccc2O1` [Compound 30B, (S)-2-hydroxy-2-methyl-N-(2-(4-((3-(trifluoromethyl)phenyl)-sulfonyl)-6-(6-(trifluoromethyl)-pyridin-2-yl)-3,4-dihydro-2H-benzo[b][1,4]oxazin-2-yl)ethyl)propanamide], for which, in experiment [1], the EC50 was less than 0.5 µM and the “TR-FRET Assay Max Response” value was “**** (The symbol “****” indicates a value greater than 200)”. Further, in experiment [2] (setting [3]), the EC50 was less than 0.5 µM and the “Gal4-RORγ Assay Max Response” value is given as “** (The symbol “**” indicates a value in the range of greater than 90 to 150)”.
As for `CN(CC(=O)O)C(=O)NCC[C@H]1CN(S(=O)(=O)c2cccc(C(F)(F)F)c2)c2cc(-c3cc(F)ccc3F)ccc2O1` [Compound 23W, (S)-N-((2-(6-(2,5-difluorophenyl)-4-((3-(trifluoromethyl)phenyl)-sulfonyl)-3,4-dihydro-2H-benzo[b][1,4]oxazin-2-yl)ethyl)carbamoyl)-N-methylglycine], in experiment [1], the EC50 was less than 0.5 µM and the “TR-FRET Assay Max Response” value is “**** (The symbol “****” indicates a value greater than 200)”. In experiment [2] (setting [3]), the EC50 is less than 0.5 µM and the “Gal4-RORγ Assay Max Response” value was “** (The symbol “**” indicates a value in the range of greater than 90 to 150)”.
